# Reference: patent US20240409890A1, “UFMYLATION INHIBITION TO TARGET TAUOPATHY IN HUMAN NEURONS” (priority 2023, published 2024)
# How the values were obtained:
# Type in all cases: cell-based, human
# [1] = system: hM4Di-expressing 4R-P301S neurons; test: Calcium imaging of acute neuronal silencing by CNO; settings: upon addition of CNO
# Method: 4R-P301S-HaloTag iPSCs were differentiated into neurons on coverslips as described. Neurons were transduced with hSyn-jGCaMP8f lentivirus on D6. This lentiviral construct was made using the 3rd generation lentiviral plasmid FUGW (Addgene, 14883), where the PacI+EcoRI fragment was replaced by the hSyn-GCaMP8f fragment (Zhang et al., 2023). pGP-AAV-hSyn-jGCaMP8f-WPRE was a gift from GENIE Project (Addgene, 162376). The medium was changed on D7, and neurons were seeded with […] K18-tau fibrils. Neurons were maintained as described until imaging at 4 and 5 weeks old. On the day of imaging, JFX-549 HaloTag ligand (HHMI Janelia) was diluted into fresh maturation medium to […], and one-fifth of neuronal medium was replaced with diluted ligand (200 nM final ligand concentration). Cells were incubated at 37° C. for 15 minutes. An equal volume of medium was replaced with half-fresh medium, and half-conditioned medium from a control well. […] Fluorescence time-lapse images were collected on a Nikon FN1 microscope using a 60×, 1.0 NA objective (CFI APO 60XW NIR, Nikon) and a C-FL GFP filter cube. […]
# 4R-P301S-HaloTag iPSCs were differentiated into neurons on coverslips as described. […] For MC1 quantification, stained neurons were imaged with a fluorescence microscope (Keyence BZ-X710). […] Neurons were perfused with 10 μM CNO at 60 seconds and calcium traces in one field were recorded for 400 seconds.
# [2] = system: hM4Di-expressing K18-seeded 4R-P301S-HaloTag neurons; test: DREADDs chronic neuronal silencing, MC1 tau inclusions; settings: CNO weekly for 2 weeks starting one week after K18 seeding
# Method: 4R-P301S-HaloTag iPSCs were differentiated into neurons on coverslips as described. Neurons were transduced with hSyn-hM4Di-mCherry lentivirus on D6. This lentiviral construct was made using the 3rd generation lentiviral plasmid FUGW (Addgene, 14883), where the PacI+EcoRI fragment was replaced by hSyn-hM4D(Gi)-mCherry. pAAV-hSyn-hM4D(Gi)-mCherry was a gift from Bryan Roth (Addgene, 50475; http://n2t.net/addgene). The medium was changed on D7, and neurons were seeded with […] K18-tau fibrils. Neurons were maintained as described. Beginning at D14, clozapine-N-oxide (CNO; Tocris) was included in weekly media changes for a final concentration of […]. Neurons were fixed and stained with MC1 on D29. For MC1 quantification, stained neurons were imaged with a fluorescence microscope (Keyence BZ-X710). A 20× objective was used to acquire a series of 10 Z-stack images per coverslip. To validate the neuronal silencing effect of CNO by calcium imaging, 4R-P301S neurons were differentiated and transduced with hSyn-hM4Di-mCherry and hSyn-GCaMP8f lentivirus on D6. At D36, JFX-549 was added to neurons and prepared for imaging as described above. Exposure time was set to 20 milliseconds. Neurons were perfused with 10 μM CNO at 60 seconds and calcium traces in one field were recorded for 400 seconds.
# [3] = system: 4R-P301S iPSC-derived neurons; test: Toxic effect of UBA5 inhibitor on iPSC-derived neurons; settings: 5 uM, 10 uM and 20 uM (data not shown)
# Method: 4R-P301S iPSCs were seeded at the density of 1.2×10^7 per plate in 10-cm plates in pre-differentiation medium. On day 0, pre-differentiated neurons were replated at the density of 4×10^5 per well in poly-D-lysine (PDL) pre-coated 12-well plates (Corning) in maturation medium. On day 5, iPSCs differentiated neurons were treated with three UBA5 inhibitors separately ay various concentrations. On day 7, iPSCs differentiated neurons were treated with […] K18 fibrils for 2 weeks. On day 21, neurons in 12-well plates were collected for flow cytometry analysis.
# [4] = system: tau inclusion in K18-seeded 4R-P301S neurons; test: UBA5 inhibitor treatment, flow cytometry of MC1+ tau inclusions; settings: for tau inclusion induced by K18 seeding (MC1+/DAPI+ neurons) compared with control treatment group: treated Day 5, 3.0 ug/mL K18 Day 7, FACS Day 21
# Method: Pre-differentiation of human iPSCs into neurons was initiated by plating 1.5×10^6 iPSCs in one well Matrigel-coated 6-well plates with Knockout DMEM/F-12 media containing doxycycline ([…]), N2 supplement, non-essential amino acids, brain-derived neurotrophic factor (10 ng/mL, Peprotech), neurotrophin-3 (10 ng/mL, PeproTech) and ROCK inhibitor (Y-27632, Cayman chemicals). The media was replaced the next day without ROCK inhibitor, and pre-differentiation was maintained for a total of three days. On day 0, the pre-differentiated precursor cells were dissociated with Accutase and re-plated generally onto Laminin-coated coverslips (Neuvitro) at 1.5×10^5 cells/coverslip or 12-well tissue culture plates (Corning) at 3.8×10^5 cells/well for the growth of neuronal cultures in Neurobasal Plus media containing B27 supplement, Glutamax, BDNF (10 ng/mL) and NT3 (10 ng/mL) with doxycycline (2 μg/mL). Half of the medium was replaced on day 3, as well as on day 7 with the removal of doxycycline from the fresh media. The medium volume was doubled on day 21. Thereafter, one-half of the medium was replaced with fresh medium weekly until the cells were collected. All human iPS cell lines used in this work have been regularly tested for mycoplasma (Lonza) and karyotyped (MSK Molecular Cytogenetics Core).
# Myc-tagged K18-P301L Tau was expressed and purified as previously described2. Briefly, protein expression was induced in Terrific Broth containing the chemical chaperone betaine (10 mM) and IPTG (500 uM) for 3 hrs at 30° C. Tau was purified via the following major steps: mechanical lysis, boiling, centrifugation, and cation exchange. Purified Tau fractions were dialyzed into aggregation assay buffer (PBS pH 7.4, 2 mM DTT). To minimize potential endotoxin contamination, purified tau was incubated with poly(epsilon-lysine) conjugated resin (Pierce), then tested post-treatment for endotoxin levels using the ToxinSensor™ Chromogenic LAL Endotoxin Assay Kit (Genscript). […] The concentration of aggregated tau was quantified by Pierce BCA assay. […]
Structure (SMILES),neuronal activities (calcium imaging) [1],levels of Tau inclusions (MC1+ aggregates) compared with vehicle treatment [2],toxic effect on neurons [3],tau inclusion induced by K18 seeding (MC1+/DAPI+ neurons) compared with control treatment group ([4]; 0.1 uM),tau inclusion induced by K18 seeding (MC1+/DAPI+ neurons) compared with control treatment group ([4]; 1 uM),"percentage of MC1+ cells (tau inclusion induced by K18 treatment) ([4]; D21(7+14), 3 μg/ml K18-seeded 4R-P301S neurons pre-treated at various concentrations, FIG. 15 legend)"
"C[N+]1([O-])CCN(C2=Nc3cc(Cl)ccc3Nc3ccccc32)CC1 [CNO, clozapine-N-oxide]",silenced,significantly reduced,–,–,–,–
"CC(=O)c1c(O)c(C)c(O)c2c1OC1=CC(=O)/C(=C(/C)N)C(=O)[C@@]12C [Usenamine A, (2E,9bR)-6-acetyl-2-(1-aminoethylidene)-7,9-dihydroxy-8,9b-dimethyldibenzouran-1,3-dione]",–,–,exerted toxic effect on neurons,failed to prevent tau inclusion,successfully prevented tau inclusion,prevented the tau inclusion
